Tests used:
[1] = molecular target: T1, ERα (Homo sapiens, UniProt P03372); experiment: ERα levels in tamoxifen-resistant MCF7 xenografts (immunoblot); assay type: in vivo, Nu/Nu mice; conditions: tamoxifen-resistant MCF7, 30 mg/kg, study termination
T1 construct: robustly degrades ER in ER-positive breast cancer cell lines; endogenous in cells; host or cells: MCF7, T47D (cell culture); MCF7 and tamoxifen-resistant MCF7 xenograft tumours in mice
T1 sequence (P03372 1-595): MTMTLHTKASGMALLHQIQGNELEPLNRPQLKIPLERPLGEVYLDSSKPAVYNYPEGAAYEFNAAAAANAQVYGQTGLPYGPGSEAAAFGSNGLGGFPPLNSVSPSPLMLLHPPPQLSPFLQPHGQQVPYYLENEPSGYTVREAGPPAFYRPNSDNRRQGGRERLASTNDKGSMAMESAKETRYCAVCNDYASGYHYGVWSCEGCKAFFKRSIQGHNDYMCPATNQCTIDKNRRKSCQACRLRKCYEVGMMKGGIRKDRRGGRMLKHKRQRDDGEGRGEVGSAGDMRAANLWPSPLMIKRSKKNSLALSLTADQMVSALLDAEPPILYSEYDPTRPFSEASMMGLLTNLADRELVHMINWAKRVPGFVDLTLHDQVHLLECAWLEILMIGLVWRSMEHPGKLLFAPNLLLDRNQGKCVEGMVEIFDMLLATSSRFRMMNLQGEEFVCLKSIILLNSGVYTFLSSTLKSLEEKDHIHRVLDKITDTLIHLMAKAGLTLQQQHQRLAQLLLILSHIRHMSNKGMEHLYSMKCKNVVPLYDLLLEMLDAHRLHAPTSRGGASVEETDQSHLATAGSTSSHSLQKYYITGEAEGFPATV
Protocol: At study termination, the tumors were removed from the mice, and ERα levels were determined by immunoblotting the tumor homogenates. […] ERα levels from the various compound arms were compared to vehicle-treated animals by analyzing the tumor lysates on separate immunoblots (graphs in FIG. 10, FIG. 11, and FIG. 12 depict data from individual immunoblots) and the average ERα levels with standard deviation is shown.
Sampling: Tumors were measured twice weekly. Terminal sacrifice was ˜18 hr after last dose; tumors were harvested, divided, and flash frozen. ERα levels were determined by immunoblotting (see Appendix 1 for details).
Flash frozen tumors were removed from −80° C. storage and placed on dry ice. RIPA lysis buffer and Halt protease inhibitors were used at 400 μl per tumor sample. A steel ball (5 mm) was placed in each sample for tissue disruption. Samples were lysed with TissueLyzer at 24 Hz for 4 minutes. The homogenization was stopped half way through the process and the block flipped over for the duration of the process. […] Lysates were then measured for total protein concentration by BCA (per manufacturer's protocol). […]
Protein was transferred from gels to nitrocellulose with Bio-Rad Turbo on default setting. […] The blots were cut so that beta-actin and ERα can be detected from the same lane/sample. […]

[2] = test system: T47D cells; experiment: Live-cell imaging growth studies and EC50 for growth inhibition, T47D; assay type: cell-based; conditions: Homo sapiens, read-out: Approximate Half-maximal Effective Concentration (EC50) for growth inhibition
Protocol: MCF7, T47D, T47D ESR1 Y537S or T47D ESR1 D538G cells were seeded at 2×10^5 density per well in 6-well tissue culture-treated plates in DMEM/F12/10% FBS (2 mL total volume). […] The plate was then placed in the Incucyte® S3 Live-Cell Analysis System and images were acquired every 4 hours for a total of 5 days (120 hours). Data were analyzed using the Incucyte® Software v2020C which quantified cell surface area coverage as confluence values. Relative growth was calculated for all timepoints for all growth conditions relative to the confluence value observed for the control at 120 hours. Graphing and statistical analyses were performed using Graphpad Prism (GraphPad Software).

[3] = test system: ESR1 (Y537S) PDX; experiment: ESR1 (Y537S) PDX model tumor growth inhibition; assay type: in vivo; conditions: for tumor growth inhibition (TGI): ESR1 (Y537S) PDX, 28 days

With O=C1CC[C@H](N2Cc3cc(N4CCN(CC5CCN(c6ccc([C@@H]7c8ccc(O)cc8CC[C@@H]7c7ccccc7)cc6)CC5)CC4)ccc3C2=O)C(=O)N1 [Compound (I-c), (3S)-3-[5-[4-[[1-[4-[(1R,2S)-6-hydroxy-2-phenyl-tetralin-1-yl]phenyl]-4-piperidyl]methyl]piperazin-1-yl]-1-oxo-isoindolin-2-yl]piperidine-2,6-dione] the “reduction of tumor ERα levels vs vehicle” value [1] was 73%, the EC50 [2] was 10 nM and the “tumor growth inhibition (TGI)” value ([3]; 10 mg/kg oral once daily) was 99%. The “tumor growth inhibition (TGI)” value ([3]; 30 mg/kg oral once daily) was 106% and the tumor growth ([3]; ESR1 Y537S hormone-independent PDX, 10 mg/kg) was “completely inhibited growth”.

Reference: patent publication US20220193072A1, “METHODS OF TREATING BREAST CANCER WITH TETRAHYDRONAPHTHALENE DERIVATIVES AS ESTROGEN RECEPTOR DEGRADER” (Arvinas Operations, Inc., priority 2020, published 2022)
